Two molecules from ChEMBL document CHEMBL1148041, “New fatty acid esters of drimane sesquiterpenes from Lactarius uvidus” (J Nat Prod, 1994) can be followed below.

As a reminder, the LC50 is the concentration that kills 50% of the test population. Low readings indicate a more lethal substance, high ones a less lethal substance.

In series [1] the test system is Artemia salina. Nature of the series: Toxicity in Artemia salina. In kind it is organism-based. The note with it: in vivo.
Series [2] deals with HL-60. The experiment in a line: Cytotoxicity against human HL60 cells assessed as inhibition of [3H]thymidine incorporation at 50 gamma/ml. In kind it is functional. (In general: Uptake of a labelled nucleoside into DNA is a usual measure of proliferation.)
In series [3] the test system is HL-60. The experiment in a line: Cytotoxicity against human HL60 cells assessed as inhibition of [3H]thymidine incorporation at 0.05 gamma/ml. Type of series: functional.

Each structure is given as a SMILES string.

`CC1(C)CCC[C@]2(C)[C@@H](CO)[C@@]3(C)O[C@H]3C(=O)[C@@H]12` [UVIDIN A] had an LC50 in series [1] of 48.8 ppm. The “inhibition (INH)” value amounted to 97% in series [2] and 21% in series [3].
Take `CC1(C)[C@@H](O)CC[C@]2(C)[C@@H](CO)[C@@]3(C)O[C@H]3C(=O)[C@@H]12` [UVIDIN B]: the “inhibition (INH)” value in series [2] is on record as 61%; in series [3], 0%.
